In US20150164781A1, “Personal Care Products Containing Extracts of Chinese Lantern (Physalis alkekengi)” (Kemin Industries, Inc., priority 2013, published 2015):

Test: Microtiter plate DPPH antioxidant assay
Settings: 0.05 mg/mL DPPH, five minutes at 25° C., absorbance 517 nm; from polynomial regression
Experimental: HPLC grade reagent alcohol was obtained from Fisher Scientific, catalog number A995-4. 2,2-Diphenyl-1-picrylhydrazyl (DPPH) was from Fisher Scientific, catalog number AA4415003. Trolox was from Fisher Scientific, catalog number 05-402-25. Test material was prepared as in Example 1 (LumiSalisTM SE lot 592142P5, 592142P8 and 592142P9). Absorbance was measured using a Molecular Devices SpectraMax M5e plate reader (KH51-001) with a clear, flat-bottom 96-well plate, […] Science […] catalog number CC plate-PS-965-F-C-S. Masses were measured with a Mettler Toledo analytical balance (Model X5204). […] The controls and samples were all plated in triplicate and the average absorbance value was used for results calculations. The plate was shaken and incubated at 25° C. in the microplate reader for five minutes. The absorbance was measured at 517 nm. The sample concentrations (x-axis) are plotted against their respective relative average absorbance value (subtracted the average absorbance of the background from the average absorbance) at 517 nm (y-axis) and the best fit line (a polynomial fit) is calculated. The […] (50% inhibition) of each control and sample were calculated based on the polynomial regression line equation.

Cc1c(C)c2c(c(C)c1O)CCC(C)(C(=O)O)O2 (stereo not shown) [trolox, Trolox]
IC50 on DPPH assay: 0.0010%
